# Publication PMC9094630, “Epidemiological Impact of GII.17 Human Noroviruses Associated With Attachment to Enterocytes” (Frontiers in Microbiology, 2022)
# Target: T1, GII.17 Kawasaki 308 variant VLP (E12905) (Norovirus GII.17, UniProt A0A0S2ZZA3)
# T1 construct: gene VP1
# Conditions: ligand as BSA conjugate (about 20 per BSA, multivalent), immobilized; VLP 2 ng/ul; HBS pH 7.4, 25 C; also ELISA (Figure 4A)
structure (smiles),measurement,value
CC(=O)N[C@H]1[C@H](O[C@H]2[C@@H](O)[C@@H](CO)O[C@@H](O[C@H]3[C@H](O)[C@@H](O)C(O)O[C@@H]3CO)[C@@H]2O)O[C@H](CO)[C@@H](O)[C@@H]1O[C@@H]1O[C@H](CO)[C@H](O)[C@H](O)[C@H]1O[C@@H]1O[C@@H](C)[C@@H](O)[C@@H](O)[C@@H]1O (stereo partly shown) [lacto-N-fucopentaose I],GII.17 variant / Kawasaki 308,255 RU
